From PMC4238264, “A Lectin from Dioclea violacea Interacts with Midgut Surface of Lutzomyia migonei, Unlike Its Homologues, Cratylia floribunda Lectin and Canavalia gladiata Lectin” (The Scientific World Journal, 2014)

Target: T1, Dioclea violacea lectin (DVL) (Macropsychanthus violaceus, UniProt I1SB09)
T1 sequence (I1SB09 1-237): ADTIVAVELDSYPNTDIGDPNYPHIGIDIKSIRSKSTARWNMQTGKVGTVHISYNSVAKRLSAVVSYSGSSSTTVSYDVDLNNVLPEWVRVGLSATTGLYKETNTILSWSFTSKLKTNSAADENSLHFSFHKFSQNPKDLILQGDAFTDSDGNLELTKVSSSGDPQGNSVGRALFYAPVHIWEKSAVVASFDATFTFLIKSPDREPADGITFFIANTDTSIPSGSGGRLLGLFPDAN
Assay: fluorescence microscopy of FITC-lectin binding to fixed Lutzomyia migonei midgut, lectin blocked with sugar
Conditions: 0.1 M D-mannose, 37 °C, 30 min preincubation; carbohydrate recognition domain; FITC-labelled lectin 100 µg/mL

Structure (SMILES): OC[C@H]1OC(O)[C@@H](O)[C@@H](O)[C@@H]1O (stereo partly drawn) [D-mannose]
- fluorescence microscopy of FITC-lectin binding to fixed Lutzomyia migonei midgut: when the midguts were treated with blocked DVL, a remarkable decrease in the fluorescence pattern
